The record followed here is ChEMBL document CHEMBL3526044, “Effect of albumin on human liver microsomal and recombinant CYP1A2 activities: impact on in vitro-in vivo extrapolation of drug clearance” (Drug Metab Dispos, 2012).

As usually defined, the Ki is a dissociation constant, usually derived from enzyme kinetics or from competition with a known ligand. The fraction unbound is the share of the substance not bound to proteins or other matrix. In general, Vmax refers to the top rate of the reaction or transport when substrate is in excess.

For data set [1], the system named is Liver microsome. In words: Drug metabolism in human liver microsomes assessed as retention time treated with 25 to 8000 uM lidocaine incubated for 5 mins prior to NADPH addition measured after 25 mins by HPLC analysis. Type of data set: ADME. (In general: Liver microsomes are vesicles of endoplasmic reticulum, rich in cytochrome P450 enzymes.)
In data set [2] the target is T1, Cytochrome P450 1A2 (Rattus norvegicus, UniProt P04799).
T1 sequence (P04799 whole entry): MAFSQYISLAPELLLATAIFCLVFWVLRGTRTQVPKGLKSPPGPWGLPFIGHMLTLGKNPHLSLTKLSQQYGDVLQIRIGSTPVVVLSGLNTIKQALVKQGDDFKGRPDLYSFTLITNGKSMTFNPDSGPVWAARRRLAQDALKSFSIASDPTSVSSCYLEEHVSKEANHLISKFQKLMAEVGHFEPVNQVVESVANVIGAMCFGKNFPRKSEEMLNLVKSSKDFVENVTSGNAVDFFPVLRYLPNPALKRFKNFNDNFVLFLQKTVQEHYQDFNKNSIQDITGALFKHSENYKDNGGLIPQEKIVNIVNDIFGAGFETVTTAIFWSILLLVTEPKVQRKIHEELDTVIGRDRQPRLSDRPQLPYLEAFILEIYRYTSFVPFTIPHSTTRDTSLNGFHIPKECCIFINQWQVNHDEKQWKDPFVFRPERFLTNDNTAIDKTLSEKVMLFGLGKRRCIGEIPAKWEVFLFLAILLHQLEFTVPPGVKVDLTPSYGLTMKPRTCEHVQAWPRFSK
Nature of the data set: Competitive inhibition of rat recombinant CYP1A2 expressed in Escherichia coli assessed as inhibition of PHEN O-deethylation by dixon plot analysis. The class given is ADME.

Data set [3] in a line: Stability of the compound assessed as retention time by HPLC analysis.
Data set [4] can be described thus: (§1) Drug metabolism in human liver microsomes assessed as enzyme-mediated O-deethylation incubated for 5 mins prior to NADPH addition measured after 25 mins by Michaelis-Menten equation analysis. Type of data set: ADME. The conditions noted are these: liver microsomes.
The test system of data set [5] is Liver microsome. The data set is described as §1. Type of data set: ADME. Conditions: microsomes, 25 min.
Data set [6] concerns Homo sapiens. In words: Hepatic clearance in healthy human at 250 mg, iv. Type of data set: ADME, organism-based, Liver. Conditions: in vivo.
Data set [7] deals with T1, Cytochrome P450 1A2. Nature of the data set: Binding affinity to rat recombinant CYP1A2 expressed in Escherichia coli assessed as fraction unbound by equilibrium dialysis method in presence of BSA. Type of data set: ADME. (In equilibrium dialysis only unbound substance equilibrates across the membrane.)
Data set [8] concerns Homo sapiens. Nature of the data set: Intrinsic clearance in healthy human at 250 mg, iv. Type of data set: ADME, organism-based. The conditions noted are these: in vivo.
Data set [9] in a line: Fraction unbound in human liver microsomes by equilibrium dialysis method.
In data set [10] the test system is Liver microsome. In words: Drug metabolism in human liver microsomes assessed as retention time at 2 to 2000 uM incubated for 5 mins prior to NADPH addition measured after 25 mins by HPLC analysis. The class given is ADME.
A short description of data set [11]: Fraction unbound in human liver microsomes by equilibrium dialysis method in presence of BSA.
Data set [12] can be described thus: (§2) Drug metabolism in human liver microsomes assessed as enzyme-mediated O-deethylation incubated for 5 mins prior to NADPH addition measured after 25 mins by Michaelis-Menten equation analysis in presence of BSA. The class given is ADME. The conditions noted are these: liver microsomes.
Data set [13] concerns Liver microsome. Described as §2. Type of data set: ADME. The conditions noted are these: microsomes, 25 min.
In data set [14] the target is T1, Cytochrome P450 1A2. In words: Binding affinity to rat recombinant CYP1A2 expressed in Escherichia coli assessed as fraction unbound by equilibrium dialysis method.
Substrate in data set [15]: CCOc1ccc(NC(C)=O)cc1
Nature of the data set: Activity of rat recombinant CYP1A2 expressed in Escherichia coli assessed as enzyme-mediated O-deethylation after 7.5 mins by Michaelis-Menten equation analysis. The class given is ADME.

Substrate in data set [16]: CCOc1ccc(NC(C)=O)cc1
Nature of the data set: Activity of rat recombinant CYP1A2 expressed in Escherichia coli assessed as enzyme-mediated O-deethylation after 7.5 mins by Michaelis-Menten equation analysis in presence of BSA. Type of data set: ADME.

As for `CCNCC(=O)Nc1c(C)cccc1C`, in the data set on Liver microsome [1], the Retention_time is given as 4.4 min.

For `CCCCCCCC/C=C\CCCCCCCC(=O)[O-].[Na+]`, the Ki at Cytochrome P450 1A2 [2] was 16.7 µM.

On to `CCOc1ccc(NC(C)=O)cc1` [PHENACETIN], for which the Retention_time was found to be 3.6 min in data set [3] and 13 min in the data set with Liver microsome [10]. For the same molecule, the Km at 25 min stood at 27.8 µM in data set [4] (read-out: KmH), 867 µM in [4] (read-out: KmL), 6.6 µM in data set [12] (read-out: KmH) and 881 µM in [12] (read-out: KmL). For the same molecule, the VmaxH with Liver microsome [5] is given as 811 pmol/min; in the data set on Liver microsome [13], 772 pmol/min. The figures for the VmaxL with Liver microsome [5] and in the data set with Liver microsome [13] were 523 pmol/min and 820 pmol/min, respectively. Moreover, in the data set with Homo sapiens [6], the CLH was found to be 71 L/h. Also, the fraction unbound at Cytochrome P450 1A2 [7] amounted to 0.8; in data set [9] it was 0.98; in data set [11], 0.78; at Cytochrome P450 1A2 [14], 0.98. In the data set on Homo sapiens [8], this molecule gave a CL of 933 L/h.

Take `CCCCC/C=C\C/C=C\CCCCCCCC(=O)O` [SODIUM LINOLATE]: the Ki at Cytochrome P450 1A2 [2] came out at 13.6 µM.

As to `CCCCC/C=C\C/C=C\C/C=C\C/C=C\CCCC(=O)O`, the Ki on Cytochrome P450 1A2 [2] is 4.7 µM.

B1: Cytochrome P450 1A2 (Rattus norvegicus) (protein)
chain: T1 sequence (P04799 whole entry)
With B1, in [15], the Km amounted to 13.6 µM and the Vmax worked out at 3.97e-05 µmol/min. For the same molecule, in data set [16], the Km amounted to 3.8 µM and the Vmax is 4.65e-05 µmol/min.
